The subject of assay [1] is diabetic (ob/ob) mice. Briefly: Blood glucose lowering activity in diabetic (ob/ob) mice. In kind it is in vivo, mouse. As for the experimental part: The blood glucose lowering activity of representative compounds of this invention were determined in an in vivo standard procedure using diabetic (ob/ob) mice. The procedures used and results obtained are briefly described below. The non-insulin dependent diabetic (NIDDM) syndrome can be typically characterizes by obesity, hyperglycemia, abnormal insulin secretion, hyperinsulinemia and insulin resistance. […] In each test procedure, mice [Male or female ob/ob (C57 B1/6J) and their lean litermates (ob+ or +/+, Jackson Laboratories) ages 2 to 5 months (10 to 65 g)] of a similar age were randomized according to body weight into 4 groups of 10 mice. The mice were housed 5 per cage and are maintained on normal rodent chow with water ad libitum. Mice received test compound daily by gavage (suspended in 0.5 ml of 0.5% methyl cellulose); dissolved in the drinking water; or admixed in the diet. […] The dose is calculated based on the fed weekly body weight and is expressed as active moiety. […] Control mice received vehicle only. On the morning of Day 4, 7 or 14 two drops of blood (approximetly 50 ul) were collected into sodium fluoride containing tubes either from the tail vein or after decapitation. For those studies in which the compound was administered daily by gavage the blood samples were collected two hours after compound administration. The plasma was isolated by centrifugation and the concentration of glucose is measured enzymatically on an Abbott V. P. Analyzer. […] Analysis of variance followed by Dunett's Comparison Test (one-tailed) are used to estimate the significant difference between the plasma glucose values from the control group and the individual compound treated groups (CMS SAS Release 5.18).

Assay [2] has as its target T1, Human recombinant PTP1B (Homo sapiens, UniProt P18031).
T1 construct: made in house
T1 sequence (P18031 1-435): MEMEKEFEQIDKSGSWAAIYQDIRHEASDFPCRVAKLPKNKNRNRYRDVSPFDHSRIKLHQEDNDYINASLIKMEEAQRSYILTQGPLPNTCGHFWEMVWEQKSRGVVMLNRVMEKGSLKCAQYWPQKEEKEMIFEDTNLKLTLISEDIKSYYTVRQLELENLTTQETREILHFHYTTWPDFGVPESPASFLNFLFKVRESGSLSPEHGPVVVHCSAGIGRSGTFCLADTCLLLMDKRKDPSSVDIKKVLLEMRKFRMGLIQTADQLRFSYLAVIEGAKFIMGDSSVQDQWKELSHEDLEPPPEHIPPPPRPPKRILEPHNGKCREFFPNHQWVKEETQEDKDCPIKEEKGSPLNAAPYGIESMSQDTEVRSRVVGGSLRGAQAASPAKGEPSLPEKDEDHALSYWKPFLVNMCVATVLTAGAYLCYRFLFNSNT
It is filed as biochemical. Particulars: read-out: IC50.

Assay [3] has as its system rat hepatic microsomal PTPases. Particulars: PTPase activity, compound at 50 μM.
The mark [4] stands for this setting: Mus musculus, po, 96 h, ob/ob mice, plasma glucose Day 4, 7 or 14, read-out: % Change Glucose from Vehicle.
Setting [5] is: Mus musculus, po, ob/ob mice, read-out: % Change Insulin from Vehicle.

Molecules are shown by their SMILES. Where two headings read alike, the source gives them in different places.

Turning to `CC1(COc2ccc(CC3SC(=O)NC3=O)cc2)CCCCC1` (centres unmarked) [Ciglitazone, 5-(4-(1-methylcyclohexylmethoxy)benzyl)-2,4-dione, reference compound], the change in vivo at 100 mg/kg in assay [1] (setting [4]) was -43%; in assay [1] (setting [5]), -39%. In addition, in assay [1] (positive control, 100 mg/kg/day), the “lowering in plasma glucose (in words)” value is given as “significant lowering in plasma glucose”.

Take `N#Cc1c2ccccc2c(-c2cc(Br)c(O[C@@H](Cc3ccccc3)C(=O)O)c(Br)c2)c2c1sc1ccccc12` [Example 115, (S)-2-[2,6-Dibromo-4-(6-cyano-benzo[b]naphtho[2,3-d]thiophen-11-yl)-phenoxy]-3-phenyl-propionic acid]: the figures for the change in vivo at 100 mg/kg in assay [1] (setting [4]) and in assay [1] (setting [5]) were -33.9% and 52%, respectively. Besides, in assay [2], the IC50 turned out to be 279 nM. Further, the “% Change from Control” value in assay [3] is on record as -55.43%.

With `O=C(O)[C@@H](CCc1ccccc1)Oc1c(Br)cc(-c2c3ccccc3c(Br)c3sc4ccccc4c23)cc1Br` [Example 113], the results for the change in vivo at 25 mg/kg in assay [1] (setting [4]) and in assay [1] (setting [5]) were -0.5% and -55.8%, respectively. Also, in assay [2], the IC50 was 45 nM. Also, in assay [3], the “% Change from Control” value is -101.01%.

Regarding `O=C(O)[C@@H](Cc1ccccc1)Oc1c(Br)cc(-c2c3c(c(Br)c4ccccc24)S(=O)(=O)c2ccccc2-3)cc1Br` [Example 189], the change in vivo at 100 mg/kg was -46.8% in assay [1] (setting [4]) and 11% in assay [1] (setting [5]). Besides, the IC50 in assay [2] is 1390 nM. The “% Change from Control” value in assay [3] is given as -89.32%.

For the compound `COc1cc(-c2c3ccccc3c(Br)c3sc4ccccc4c23)cc(Br)c1O[C@H](Cc1ccccc1)C(=O)O` [Example 194, (R)-2-[2-Bromo-4-(6-bromo-benzo[b]naphtho[2,3-d]thiophen-11-yl)-6-methoxy-phenoxy]-3-phenyl-propionic acid], in assay [1] (setting [4]), the change in vivo at 25 mg/kg is -32%. Also, the IC50 in assay [2] is 217 nM. Moreover, the “% Change from Control” value in assay [3] is on record as -79.35%.

With `O=C(O)C(Cc1ccc(F)cc1)Oc1c(Br)cc(-c2c3ccccc3c(Br)c3sc4ccccc4c23)cc1Br` (centres unmarked) [Example 155, 2-[2,6-Dibromo-4-(6-bromo-benzo[b]naphtho[2,3-d]thiophen-11-yl)-phenoxy]-3-(4-fluoro-phenyl)-propionic acid], the change in vivo at 25 mg/kg in assay [1] (setting [4]) is -28.9%; in assay [1] (setting [5]) it was -63.2%. Moreover, the IC50 in assay [2] was determined as 56 nM. Further, the “% Change from Control” value in assay [3] is recorded as -82.25%.

For the compound `O=C(O)C(Cc1c[nH]c2ccccc12)Oc1c(Br)cc(-c2c3ccccc3c(Br)c3sc4ccccc4c23)cc1Br` (racemic) [Example 122, (R,S)-2-[2.6-Dibromo-4-(6-bromo-benzo[b]naphtho[2,3-d]thiophen-11-yl)-phenoxy]-3-(1 H-indol-3-yl)-propionic acid], the change in vivo at 100 mg/kg is -28.1% in assay [1] (setting [4]) and -37.4% in assay [1] (setting [5]). For the same compound, in assay [2], the IC50 is 36 nM. Further, the “% Change from Control” value in assay [3] was -85.46%.

As for `O=C(O)[C@@H](Cc1ccccc1)Oc1c(I)cc(-c2c3ccccc3cc3sc4ccccc4c23)cc1I` [Example 131], the change in vivo at 25 mg/kg in assay [1] (setting [4]) was -3.63%; in assay [1] (setting [5]), -67.5%. Moreover, the “% Change from Control” value in assay [3] is reported as -66.21%.

Turning to `O=C(O)[C@@H](Cc1ccccc1)Oc1c(Br)cc(-c2c3ccccc3c(C(F)(F)F)c3sc4ccccc4c23)cc1Br` [Example 125, (R)-2-[2,6-Dibromo-4-(6-trifluoromethyl-benzo[b]naphtho[2,3-d]thiophen-11-yl)-phenoxy]-3-phenyl-propionic acid], the change in vivo at 95 mg/kg was -27.6% in assay [1] (setting [4]) and -89.7% in assay [1] (setting [5]). The “% Change from Control” value in assay [3] was -73.96%.

As for `Oc1c(Br)cc(-c2c3ccccc3c(I)c3sc4ccccc4c23)cc1Br` [Example 59, 2,6-Dibromo-4-(6-iodo-benzo[b]naphtho[2,3-d]thiophen-11-yl)-phenol], in assay [2], the half-maximal inhibitory concentration (IC50) came to 612 nM. In addition, the “% Change from Control” value in assay [3] is -35.46%.

Take `O=C(O)[C@@H](CCN1Cc2ccccc2C1=O)Oc1c(Br)cc(-c2c3ccccc3c(Br)c3sc4ccccc4c23)cc1Br` [Example 124, (2R)-2-[2,6-Dibromo-4-(6-bromo-benzo[b]naphtho[2,3-d]thiophen-11-yl)-phenoxy]-4-(1-oxo-1,3-dihydro-isoindol-2-yl)-butyric acid]: in assay [2], the IC50 came to 85 nM. Moreover, the “% Change from Control” value in assay [3] is listed as -70.01%.

For the compound `COC(=O)[C@H](Cc1ccccc1)Oc1c(Br)cc(-c2c3ccccc3c(Br)c3sc4ccccc4c23)cc1Br` [Example 110, (S)-2-[2,6-Dibromo-4-(6-bromo-benzo[b]naphtho[2,3-d]thiophen-11-yl)-phenoxy]-3-phenyl-propionic acid, methyl ester], the concentration for half-maximal inhibition (IC50) in assay [2] is 1520 nM. For the same compound, the “% Change from Control” value in assay [3] is reported as -12.78%.

For `O=C(O)COc1cc(-c2c3ccccc3c(Br)c3sc4ccccc4c23)c(Br)cc1Br` [Example 92, [2,4-Dibromo-5-(6-bromo-benzo[b]naphtho[2.3-d]thiophen-1-yl)-phenoxyl]-acetic acid], the half-inhibitory concentration (IC50) in assay [2] turned out to be 644 nM. The “% Change from Control” value in assay [3] was -98.16%.

For the compound `N#Cc1c2ccccc2c(-c2ccc(O[C@H](Cc3ccccc3)C(=O)O)cc2)c2c1sc1ccccc12` [Example 116, (R)-2-[4-(6-Cyano-benzo[b]naphtho[2,3-d]thiophen-11-yl)-phenoxy]-3-phenyl-propionic acid], the IC50 in assay [2] stood at 765 nM. Further, the “% Change from Control” value in assay [3] was -61.89%.

For the compound `CC(=O)Oc1ccc(-c2c3ccccc3c(Br)c3sc4ccccc4c23)cc1` [Example 37, 4-(6-Bromo-benzo[b]naphtho[2,3-d]thiophen-11-yl-phenol)acetate(ester)], the half-inhibitory concentration (IC50) in assay [2] stood at 1180 nM. In assay [3], the “% Change from Control” value was -3.02%.

For the compound `O=C(O)CCOc1c(Br)cc(-c2c3ccccc3c(Br)c3sc4ccccc4c23)cc1Br` [Example 179], the half-inhibitory concentration (IC50) in assay [2] worked out at 203 nM. For the same compound, in assay [3], the “% Change from Control” value is on record as -66.27%.

Consider `Oc1c(Br)cc(-c2c3ccccc3c(Sc3ccccc3)c3sc4ccccc4c23)cc1Br` [Example 64, 2,6-Dibromo-4-(6-phenylsulfanyl-benzo[b]naphtho[2,3-d]thiophen-11-yl)-pheno], for which, in assay [2], the half-inhibitory concentration (IC50) was 347 nM. The “% Change from Control” value in assay [3] is recorded as -15.90%.

In the case of `Oc1c(Br)cc(-c2c3ccccc3c(Br)c3sc4ccccc4c23)cc1Br` [Example 21, 2,6-Dibromo-4-(6-bromo-benzo[b]naphtho[2,3-d]thiophen-11-yl)-phenol], the 50% inhibitory concentration (IC50) in assay [2] is 384 nM. The “% Change from Control” value in assay [3] is given as -32.41%.

For the compound `Oc1cccc(-c2c3ccccc3c(Br)c3sc4ccccc4c23)c1` [Example 42, 3-(6-Bromo-benzo[b]naphtho[2,3-d]thiophen-11-yl)-phenol], in assay [2], the IC50 stood at 1500 nM. Besides, the “% Change from Control” value in assay [3] was -21.28%.

Turning to `Oc1c(Br)cc(-c2c3ccccc3c(Br)c3oc4ccccc4c23)cc1Br` [Example 210, 2,6-Dibromo-4-(6-bromo-benzo[b]naphtho[2,3-d]furan-11ly)-phenol], the IC50 in assay [2] came to 1060 nM. Moreover, in assay [3], the “% Change from Control” value was -51.55%.

`O=C(O)COc1c(-c2ccccc2)cc(-c2c3ccccc3cc3sc4ccccc4c23)cc1-c1ccccc1` [Example 191]: the change in vivo at 10 mg/kg in assay [1] (Mus musculus, po, 96 h, ob/ob mice, dose 10 mg/Kg, plasma glucose Day 4, 7 or 14, read-out: % Change Glucose from Vehicle) was -22.8%. The change in vivo at 25 mg/kg in assay [1] (setting [4]) was -36.5%; in assay [1] (setting [5]) it was -64.3%.

Take `C[C@@H](Oc1cc(-c2c3ccccc3c(Br)c3sc4ccccc4c23)ccc1Br)C(=O)O` [Example 144, (R)-2-[2-bromo-5-(6-Bromo-benzo[b]naphtho[2,3-d]thiophen-11-yl)-phenoxyl]-propionic acid]: the IC50 in assay [2] came out at 1130 nM. For the same compound, the “% Change from Control” value in assay [3] is -85.24%.

What is called IC50 is the midpoint of a concentration-inhibition curve.

For the origin of these results see patent US6110962A, “11-aryl-benzo[B]naphtho[2,3-D]furans and 11-aryl-benzo[B]naphtho[2,3-D]thiophenes useful in the treatment of insulin resistance and hyperglycemia” (American Home Products Corporation, priority 1999, dated 2000).
